# Laboratory results as given in patent US20130165520A1, “Hybrid Molecule Having Mixed Retinoic Acid Receptor Agonism and Histone Deacetylase Inhibitory Properties” (priority 2010, published 2013).
# Experiments:
# [1] = tested on: NCI-60 panel of human tumor cell lines; assay: NCI-60 in vitro cancer screen (SRB), whole panel; type: cell-based; settings: all cell lines, read-out: GC-50 values, range over all cell lines
# Description: Both RARs and HDACs are ubiquitously expressed in cell lines and tissue. It was therefore surmised that hybrid 3 could display cytotoxic activities in a wide variety of cell lines.
# The human tumor cell lines of the cancer screening panel are grown in RPMI 1640 medium containing 5% fetal bovine serum and 2 mM L-glutamine. For a typical screening experiment, cells are inoculated into 96 well microtiter plates in 100 μL at plating densities ranging from 5,000 to 40,000 cells/well depending on the doubling time of individual cell lines. After cell inoculation, the microtiter plates are incubated at 37° C., 5% CO2, 95% air and 100% relative humidity for 24 h prior to addition of experimental drugs. […]
# Following drug addition, the plates are incubated for an additional 48 h at 37° C., 5% CO2, 95% air, and 100% relative humidity. […] Bound stain is subsequently solubilized with 10 mM trizma base, and the absorbance is read on an automated plate reader at a wavelength of 515 nm. […] Using the absorbance measurements [time zero, (Tz), control growth, (C), and test growth in the presence of drug at the five concentration levels (Ti)], the percentage growth is calculated at each of the drug concentration levels. Percentage growth inhibition is calculated as: [(Ti-Tz)/(C-Tz)]×100 for concentrations for which Ti>/=Tz; and [(Ti-Tz)/Tz]×100 for concentrations for which Ti<Tz. […]
# NCI-H23 = NCI-H23 (Non-Small cell lung cancer); 48 h
# HCT-116 = HCT-116 (Colon); 48 h
# SF-539 = SF-539 (CNS); 48 h
# SNB-75 = SNB-75 (CNS); 48 h
# OVCAR-4 = settings: 48 h
# NCI/ADR-RES = settings: 48 h
# TK-10 = TK-10 (Renal); 48 h
# UO-31 = UO-31 (Renal); 48 h
# BT-549 = BT-549 (Breast); 48 h
# HL-60(TB) = assay: cells; settings: Homo sapiens, HL-60, 48 h
# A549/ATCC = assay: cells; settings: Homo sapiens, A549, 48 h
# EKVX = assay: cells; settings: Homo sapiens, 48 h
# NCI-H226 = assay: cells; settings: Homo sapiens, NCI-H226, 48 h
# KM12 = assay: cells; settings: Homo sapiens, KM12, 48 h
# SNB-19 = assay: cells; settings: Homo sapiens, SNB-19, 48 h
# U251 = assay: cells; settings: Homo sapiens, U-251, 48 h
# LOX IMVI = assay: cells; settings: Homo sapiens, 48 h
# OVCAR-3 = assay: cells; settings: Homo sapiens, OVCAR-3, 48 h
# 786-0 = assay: cells; settings: Homo sapiens, 786-0, 48 h
smiles,measurement,setting,value
CC1(C)CCC(C)(C)c2cc(-c3ccc4cc(C(=O)NO)ccc4c3)ccc21 [hybrid 3],IC50,[1],0.302 to 4.3 µM
same,TGI,NCI-H23,2.43 µM
same,TGI,HCT-116,1.5 µM
same,TGI,SF-539,7.26 µM
same,TGI,SNB-75,6.1 µM
same,TGI,OVCAR-4,5.82 µM
same,TGI,NCI/ADR-RES,1.76 µM
same,TGI,TK-10,4.97 µM
same,TGI,UO-31,1.61 µM
same,TGI,BT-549,4.81 µM
same,GI50,HL-60(TB),0.353 µM
same,CC50,HL-60(TB); read-out: LC50,7.66 µM
same,GI50,A549/ATCC,0.473 µM
same,CC50,A549/ATCC; read-out: LC50,7.8 µM
same,GI50,EKVX,0.686 µM
same,CC50,EKVX; read-out: LC50,18.4 µM
same,GI50,NCI-H226,1.22 µM
same,CC50,NCI-H226; read-out: LC50,18.8 µM
same,GI50,KM12,0.616 µM
same,CC50,KM12; read-out: LC50,4.61 µM
same,GI50,SNB-19,1.09 µM
same,CC50,SNB-19; read-out: LC50,5.09 µM
same,GI50,U251,0.437 µM
same,CC50,U251; read-out: LC50,4.8 µM
same,GI50,LOX IMVI,0.372 µM
same,CC50,LOX IMVI; read-out: LC50,4.19 µM
same,GI50,OVCAR-3,0.603 µM
same,CC50,OVCAR-3; read-out: LC50,4.48 µM
same,GI50,786-0,1.1 µM
same,CC50,786-0; read-out: LC50,5.12 µM
